Assay results published in the NIST ThermoML archive (doi:10.1021/je400512u).

Key:
[1] = xn = mol fraction of the nth substance listed; conditions: 101 kPa, Liquid, x2 = 0; for viscosity: Concentric cylinders viscometry; for speed of sound: Pulse-echo method; for mass density: Vibrating tube method
[2] = 101 kPa, Liquid; for viscosity: Concentric cylinders viscometry; for speed of sound: Pulse-echo method; for mass density: Vibrating tube method

C1COCCO1 [1,4-dioxane] + CCCCCCCO
[1]
Conditions | mass density [kg/m3] | speed of sound [m/s] | viscosity [mPa·s]
298.15 K | 1027.99 | 1345.1 | 1.212
303.15 K | 1022.33 | 1323.1 | 1.115
308.15 K | 1016.66 | 1301.3 | 1.028
313.15 K | 1010.98 | 1279.7 | 0.952
318.15 K | 1005.28 | 1258.2 | 0.883
323.15 K | 999.58 | 1237.4 | 0.822

C1COCCO1 [1,4-dioxane]
[2]
Conditions | mass density [kg/m3] | speed of sound [m/s] | viscosity [mPa·s]
298.15 K | 1027.99 | 1345.1 | 1.212
303.15 K | 1022.33 | 1323.1 | 1.115
308.15 K | 1016.66 | 1301.3 | 1.028
313.15 K | 1010.98 | 1279.7 | 0.952
318.15 K | 1005.28 | 1258.2 | 0.883
323.15 K | 999.58 | 1237.4 | 0.822

CCCCCCCO [heptan-1-ol]
[2]
Conditions | mass density [kg/m3] | speed of sound [m/s] | viscosity [mPa·s]
298.15 K | 819.73 | 1328.3 | 5.869
303.15 K | 816.183 | 1311.3 | 4.989
308.15 K | 812.61 | 1294.5 | 4.27
313.15 K | 809.011 | 1277.7 | 3.677
318.15 K | 805.383 | 1261.1 | 3.186
323.15 K | 801.731 | 1245.1 | 2.777
